Data published in patent US8048918B2, “Treatment of hyperproliferative diseases” (Vampex Limited, priority 2000, dated 2011).
“Also recorded” adds a separate entry of the source. Where no end group is shown, it is not given here.

Assays:
[1] = system: hyperproliferative psoriatic keratinocytes; assay: proliferation assay (Coulter cell counter) on hyperproliferative psoriatic keratinocytes; assay type: cell-based, human
From the text: Biopsy samples are obtained from psoriatic patients. Skin from patients with chronic plaque psoriasis are obtained with informed consent. Ethical approval has been obtained previously from The South Sheffield Regional Ethics Committee. Biopsies are all be taken from the lower back in psoriasis patients aged 40 to 60.
Remove subcutaneous tissue and some of the dermis with scissors, dissect skin into 1×2 cm pieces with a scalpel. Rinse the tissue 2-5 times in PBSA. Float skin samples on 0.6% Trypsin in PBSA (pH 7.4) ON at 4° C. (or alternatively for 20-30 min at 37° C.)
The separation of the epidermis is carefully monitored. When the first detachment of the epidermis is visible at the cut edges of the skin sample place the pieces (dermis-side down) in 100 mm Petri dishes. Irrigate with 5 ml of complete culture medium (incl. serum). Peel off the epidermis with forceps and collect it in a 50 ml centrifuge tube containing 20 ml of complete culture medium (KGM). Separate the keratinocytes from the epidermal cells by gently pipetting and sieving through a nylon gauze of 100 μm mesh. Wash the isolated epidermal cells twice in KGM by centrifugation at 100 g for 10 min, and count the total number of cells.
Cells are seeded at 37° C. in KGM medium at a density of 2500 cells/cm^2 in a 25 cm^2 cell culture flask. The medium is replaced every 48 hours and cells are passaged when confluent.
Cell Seeding and Analysis: Purchased secondary cultures or primary cultures (from donor skin) are seeded at 3500 cells/cm^2 in K-SFM 25 cm^2 tissue culture flasks. The medium is changed (5 ml per flask) the day after seeding and every other day thereafter. At 70-80% confluence the cells are subcultured by seeding 3500 cells per well in 24 well cell culture plates, each well containing 500 μl of K-SFM. One well plate is seeded for each treatment. After allowing one day for settling the cells are switched to experimental medium (500 μl per well). Stock solutions of additions are as before. Experimental treatments are as follows:
The medium is replaced every other day. Cells are harvested by trypsinisation. 500 μl Trypsin/EDTA is added to each well to be harvested and then aspirated off. The well plates are incubated for 5-6 min at 37° C. 500 μl PBS is added to the wells and the cells are resuspended. The cell suspension is added to 20 ml Isoton solution in a Coulter counter “Accuvette” and the cells are counted. On each harvest, 3 wells of cells are counted for each treatment and 3 counts were made for each well.
Cell number is calculated as follows: Coulter Counter removes 500 μl of 20 ml sample ( 1/40). Multiply cell count by 40 to obtain cell number in cup, this equals the total number of cells in one well (approximately, as ˜10% taken out for viability test). […]

[2] = system: COS-1 cells; assay: proliferation assay of COS-1 cells (Coulter counter); assay type: cell-based; conditions: P142 1 mg/ml, peptides 6 μM; 24 and 48 hours after treatment; FIG. 7
Method: […] (COS1 and COS7) are purchased from the European Cell Culture Collection, thawed and propagated according to the instructions from the supplier; cells are cultured essentially in the same manner as for normal human keratinocytes (Example 3 above), except that cells are seeded at 20 000 cells/cm^2, with only one treatment with antibody P142, control immunoglobulin, peptide 589, peptide 592 or control peptide 24 hrs after seeding.
Proliferation is assayed by counting cells in a Coulter counter, as described above.

[3] = system: retinoic acid synthesis; assay: RA synthesis in normal human epidermal keratinocytes; assay type: cell-based; conditions: Carbenoxolone 6 μM, Disulfiram 15 μM or Citral 10 μM
Method: Protocols used are as described in as in Båvik et al., Experimental Cell research 1995:216, p. 358-362. Briefly, subcultures are grown to confluence in KGM. On day of confluence change to keratinocyte differentiation media (1.2 mM Ca^2+, KDM) with 2 μM holo-RBP+/−inhibitors ([…]; […]; 10 μM Citral; 0.2 mM 4-Methylpyrazole; 15 μM Disulfiram; 10 μM Citral; 2 mM 3-Mercaptopropionic acid; or drug vehicle alone). Cells are grown for 4 days, and cells are media are harvested.
The concentration of RA in cells and media is analysed directly by HPLC. Essentially as in “Characterisation of retinol metabolism in cultured human epidermal keratinocytes”, Randolph R. K. and Simon M., J. Biol. Chem. 268:9198-9205, 1993. The concentration of RA in cells is also analysed indirectly by Northern blot analysis of CRABPII mRNA expression in the keratinocytes, essentially as described in Elder et al. Retinoid Induction of CRABPII nRNA in Human Dermal Fibroblasts: Use as a Retinoid Bioassay, J. Investigative Dermatology 106:517-521, 1996.
The above two experiments are repeated, but with the use of normal human epithelial keratinocytes instead of psoriatic human epidermal keratinocytes.

[4] = target: T1, RalDHI (Rattus norvegicus, UniProt P51647); conditions: Penzes et al. 1997; Chen and Juchau 1997; cited from earlier work
T1 sequence (P51647 1-501): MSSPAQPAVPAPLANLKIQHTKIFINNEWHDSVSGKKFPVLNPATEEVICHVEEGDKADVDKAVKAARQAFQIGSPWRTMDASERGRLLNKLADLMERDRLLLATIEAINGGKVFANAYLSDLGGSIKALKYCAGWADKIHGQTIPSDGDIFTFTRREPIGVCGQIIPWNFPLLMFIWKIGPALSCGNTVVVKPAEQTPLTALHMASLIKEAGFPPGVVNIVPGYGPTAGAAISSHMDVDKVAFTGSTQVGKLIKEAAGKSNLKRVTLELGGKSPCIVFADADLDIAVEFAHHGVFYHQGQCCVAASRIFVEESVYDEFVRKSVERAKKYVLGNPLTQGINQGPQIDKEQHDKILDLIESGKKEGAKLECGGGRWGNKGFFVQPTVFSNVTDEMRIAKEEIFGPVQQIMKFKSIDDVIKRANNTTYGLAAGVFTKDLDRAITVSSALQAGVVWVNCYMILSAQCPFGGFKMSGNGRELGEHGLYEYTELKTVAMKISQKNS

Compound | effect on RBP-increased proliferation ([1]; peptides 6 μM, Ca2+ 1.2 mM, RBP 0.6 μM) | proliferation of Cos-1 cells (cell numbers) [2] | retinoic acid synthesis [3] | IC50 [4] | effect on retinol/retinoic acid-induced keratinocyte proliferation (cell numbers) ([1]; RA synthesis inhibitors (Disulfiram 15 μM, Citral 10 μM, Carbenoxolone 12 μM), 1.2 mM Ca2+, 2 μM ROL, FIG. 10)
GRVRLLNNWDVCA | reversed; also recorded: reduces proliferation | marked reduction in proliferation |  |  | 
CC(C)=CCCC(C)=CC=O [Citral, 3,7-dimethyl-2,6-octadienal] |  |  | inhibited | 1000 nM | 
CC1(C)[C@@H](OC(=O)CCC(=O)O)CC[C@]2(C)[C@H]3C(=O)C=C4[C@@H]5C[C@@](C)(C(=O)O)CC[C@]5(C)CC[C@@]4(C)[C@]3(C)CC[C@@H]12 [Carbenoxolone] |  |  | inhibited |  | particularly marked effect
